Like-named read-outs stand apart in the source and are kept apart here.
How the values were obtained:
M. bovis BCG = conditions: cited from earlier work
Mab-SaS [1] = target: T1, Mab-SaS (Mycobacteroides abscessus, UniProt B1MAQ5); experiment: Mab-SaS inhibition, fluorimetric enzymatic assay; assay type: biochemical, M. abscessus; conditions: for remaining activity at 100 µM: 100 μM ligand concentration, read-out: %RA (residual enzymatic activity)
Experimental: The selected furan-based compounds were screened against Mab-SaS enzymatic activity at 100 µM (dissolved in a solution containing 10% DMSO). Assays were performed at subsaturating concentrations of chorismic acid (50 μM), as above. For the most promising compounds, the IC50 value was also determined.
To further verify the reliability of the inhibition results against Mab-SaS, we determined the IC50 of compound 1 in the presence of 0.1 mg/mL bovine serum albumin (BSA) or in the presence of 0.01% (v/v) Triton X-100 as a detergent. Moreover, to exclude an unspecific binding to cysteine residues, we also tested the IC50 with 100 μM of 1,4-dithio-DL-threitol (DTT).

Mab-SaS [2] = target: T1, Mab-SaS; experiment: Grating-Coupled Interferometry (GCI) binding analysis; parameters: species or system M. abscessus; conditions: 25 °C, 1:1 kinetic model
Experimental: The binding affinity and ligand efficiency of the furan-based library was evaluated by Grating-Coupled Interferometry (GCI). The analyses were performed by the Creoptix WAVE system (Malvern Panalytical, Malvern, UK). Borate buffer (100 mM sodium borate pH 9.0, 1 M NaCl) was used for chip conditioning. Experiments were carried out by reversibly capturing His-tagged Mab-SaS (50 μg/mL in running buffer, i.e., PBS, 0.05% Tween 20, 0.5% DMSO) on 4PCP-NTA WAVE chips, according to the manufacturer’s instructions, at a density of 3000 pg/mm^2.
Regeneration-free injections of a 1:2 dilution series in the 500–3 μM range for each compound of the furan-based library in running buffer were performed at 25 °C, using a flow rate of 100 μL/min.
A dimethyl sulfoxide (DMSO) calibration curve was used for bulk correction, and blank injections for double referencing. Data were analyzed and corrected using the Creoptix WAVE control software (correction applied: X and Y offset; DMSO calibration; double referencing). The processed data were fitted using the “1:1” kinetic model of the WAVE control software. All the experiments were performed in triplicate. Descriptive Statistical Analysis, as implemented in Microsoft Office Excel 10 (Microsoft Corporation, Redmond, WA, USA), was employed to calculate the mean of the obtained values of kon, koff, and KD as a measure of central tendency; standard deviations of the former values were computed as a measure of dispersion.

Mab = experiment: MIC evaluation by resazurin assay in iron-limiting conditions; assay type: cell-based, M. abscessus; conditions: Mycobacteroides abscessus, chelated Sauton's medium, highest concentration tested 500 μM, read-out: antimycobacterial activity (MIC)
Experimental: Exponentially growing primary cultures were diluted 1:10 in iron-depleted Sauton’s medium enriched with 10% OACD. The secondary Mab culture growing in iron-limiting conditions was then diluted to OD600 0.005 using iron-depleted Sauton’s medium. Each well of the 96-well plate was filled with 100 μL of the diluted cell suspension. For each plate, the first four wells of the first row were filled with the cellular suspension and no drug was added (negative control). The following four wells were filled with the cellular suspension and treated with the vehicle volume. The last four wells of the first row were filled with the cellular suspension and treated with 1 mg/mL Streptomycin (positive control). Only the first well of the other rows was filled with 200 μL of cell suspension. In this well, the highest concentration of compound 1 (500 µM) was added and then two-fold serially diluted. After 24 h of incubation at 37 °C, 10 μL/well of 0.01% resazurin was added. The plate was re-incubated at 37 °C for 24 h and then read out. Pink wells indicated bacterial viability, whereas wells with an unchanged blue color indicated cidality. The MIC was counted as the lowest compound concentration causing cidality.

[3] = test system: C=C(O[C@@H]1C=C(C(=O)O)C=C[C@H]1O)C(=O)O; experiment: purified protein, by the assay type; conditions: other: substrate of Mab-SaS, 37 °C, pH 7.5
[4] = no additive, 50 μM chorismic acid, read-out: IC50

T1 sequence (B1MAQ5 entry or part of it): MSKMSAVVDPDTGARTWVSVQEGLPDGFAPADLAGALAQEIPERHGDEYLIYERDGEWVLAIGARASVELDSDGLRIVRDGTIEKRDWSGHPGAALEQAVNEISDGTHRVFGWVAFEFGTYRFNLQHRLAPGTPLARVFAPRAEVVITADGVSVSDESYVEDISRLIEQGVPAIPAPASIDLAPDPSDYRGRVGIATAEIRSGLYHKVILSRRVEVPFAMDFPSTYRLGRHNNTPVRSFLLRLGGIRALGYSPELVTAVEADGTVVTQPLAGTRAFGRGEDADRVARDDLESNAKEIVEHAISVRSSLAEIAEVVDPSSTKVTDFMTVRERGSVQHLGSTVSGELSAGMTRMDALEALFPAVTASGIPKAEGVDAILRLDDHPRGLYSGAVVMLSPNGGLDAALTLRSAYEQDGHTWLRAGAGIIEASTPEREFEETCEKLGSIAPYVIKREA

Compound	antimycobacterial activity on M. bovis BCG (M. bovis BCG) [µM]	IC50 (Mab-SaS [1]; 100 μM DTT in the reaction mixture, read-out: IC50 in the presence of DTT) [µM]	inhibition at 100 µM (Mab-SaS [1]; 100 μM compound) [%]	remaining activity at 100 µM (Mab-SaS [1]; 50 μM chorismic acid) [%]	IC50 (Mab-SaS [1]; 0.1 mg/mL bovine serum albumin (PAIN analysis), read-out: IC50 in the presence of BSA) [µM]	IC50 (Mab-SaS [1]; 0.01% (v/v) Triton X-100 (PAIN analysis), read-out: IC50 in the presence of Triton X-100) [µM]	IC50 (Mab-SaS [1]; [4]) [µM]	Kd (Mab-SaS [2]) [µM]	koff (Mab-SaS [2]) [s⁻¹]	kon (Mab-SaS [2]) [M⁻¹ s⁻¹]	MIC (Mab) [µM]	Km [3] [µM]
O=C(O)c1ccc(-c2ccc(C(F)(F)F)cc2C(F)(F)F)o1 [Compound 1, 5-(2,4-bis(trifluoromethyl)phenyl)furan-2-carboxylic acid]	500	6.1 ± 1.42	98.8	1.2 ± 2.8	5.2 ± 0.68	6.5 ± 0.56	5.3 ± 1.5	6.11 ± 0.16	9.77e-05	15.4 ± 5	> 500	
Nc1cc([N+](=O)[O-])ccc1-c1ccc(C(=O)O)o1 [Compound 2, 5-(2-amino-4-nitrophenyl)furan-2-carboxylic acid]				2.3 ± 0.7			23.6 ± 1.8	12.7 ± 3.32	0.00303	244 ± 6200		
O=C(O)c1ccc(-c2cc(C(F)(F)F)cc(C(F)(F)F)c2)o1 [Compound 3, 5-(3,5-bis(trifluoromethyl)phenyl)furan-2-carboxylic acid]				15.6 ± 2.5			29.5 ± 1.6	67.5 ± 9.51	0.00675 ± 6.1e-07	100 ± 500		
Mab-SaS (Mycobacteroides abscessus ATCC 19977)												58

Source: paper PMC9966845, “Targeting Siderophore-Mediated Iron Uptake in M. abscessus: A New Strategy to Limit the Virulence of Non-Tuberculous Mycobacteria” (Pharmaceutics, 2023)
